Assays:
FAAH = target: T1, FAAH (Homo sapiens, UniProt O00519); experiment: Assay Method 1: FAAH assay, 3H-anandamide hydrolysis in cell homogenate
T1 sequence (O00519 1-579): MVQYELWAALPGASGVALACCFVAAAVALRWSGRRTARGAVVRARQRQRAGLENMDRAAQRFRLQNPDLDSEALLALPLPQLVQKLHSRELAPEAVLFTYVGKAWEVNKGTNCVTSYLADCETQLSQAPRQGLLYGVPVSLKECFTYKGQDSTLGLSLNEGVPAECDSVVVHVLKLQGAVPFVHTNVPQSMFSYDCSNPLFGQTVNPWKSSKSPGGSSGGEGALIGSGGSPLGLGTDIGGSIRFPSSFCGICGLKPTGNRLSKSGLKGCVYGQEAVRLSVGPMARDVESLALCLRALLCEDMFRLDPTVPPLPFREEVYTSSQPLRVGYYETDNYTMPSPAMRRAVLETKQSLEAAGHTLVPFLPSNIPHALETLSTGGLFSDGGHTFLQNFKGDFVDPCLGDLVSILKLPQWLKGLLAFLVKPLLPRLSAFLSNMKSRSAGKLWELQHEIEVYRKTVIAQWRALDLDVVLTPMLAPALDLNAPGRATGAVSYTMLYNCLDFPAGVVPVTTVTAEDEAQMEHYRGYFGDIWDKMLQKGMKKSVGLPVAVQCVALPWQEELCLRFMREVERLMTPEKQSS

Rat FAAH = target: T2, Rat FAAH (Rattus norvegicus, UniProt P97612); experiment: Assay Method 2: FAAH assay, 3H-anandamide hydrolysis in cell homogenate; type: biochemical; conditions: average of results obtained, > value = solubility limit or highest concentration tested
T2 construct: expressed in transfected cells
T2 sequence (P97612 1-579): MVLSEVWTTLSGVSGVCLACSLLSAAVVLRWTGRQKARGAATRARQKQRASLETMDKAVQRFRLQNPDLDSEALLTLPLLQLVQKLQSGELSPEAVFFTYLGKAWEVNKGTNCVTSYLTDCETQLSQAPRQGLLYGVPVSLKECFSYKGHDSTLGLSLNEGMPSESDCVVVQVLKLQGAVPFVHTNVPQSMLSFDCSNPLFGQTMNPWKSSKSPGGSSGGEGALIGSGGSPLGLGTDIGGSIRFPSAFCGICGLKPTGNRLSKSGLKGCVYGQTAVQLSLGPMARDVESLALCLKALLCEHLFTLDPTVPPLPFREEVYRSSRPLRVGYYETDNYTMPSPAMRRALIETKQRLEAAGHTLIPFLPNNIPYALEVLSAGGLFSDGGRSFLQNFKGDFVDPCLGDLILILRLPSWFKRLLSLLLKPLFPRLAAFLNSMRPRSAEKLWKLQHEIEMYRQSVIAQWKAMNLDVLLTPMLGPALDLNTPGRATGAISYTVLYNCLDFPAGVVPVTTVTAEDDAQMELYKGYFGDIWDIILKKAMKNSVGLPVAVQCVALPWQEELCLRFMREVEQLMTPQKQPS
Method: A. Transfection of Cells with Rat FAAH
The assay mixture consisted of 50 μL of the cell homogenate, 10 μL of the test compound, and 40 μL of anandamide [1-^3H-ethanolamine] (^3H-AEA, Perkin-Elmer, 10.3 Ci/mmol), which was added last, for a final tracer concentration of 80 nM. The reaction mixture was incubated at rt for 1 h. During the incubation, 96-well Multiscreen filter plates (catalog number MAFCNOB50; Millipore, Bedford, Mass., USA) were loaded with 25 μL of activated charcoal (Multiscreen column loader, catalog number MACL09625, Millipore) and washed once with 100 μL of MeOH. […] After the 1 h incubation, 60 μL of the reaction mixture were transferred to the charcoal plates, which were then assembled on top of the DYNEX plates using Centrifuge Alignment Frames (catalog number MACF09604, Millipore). The unbound labeled ethanolamine was centrifuged through to the bottom plate (5 min at 2000 rpm), which was preloaded with the scintillant, as described above. The plates were sealed and left at rt for 1 h before counting on a Hewlett Packard TopCount.

SMILES | IC50 (FAAH) [nM] | IC50 (Rat FAAH) [nM]
Cn1cc2c(NC(=O)N3CCN(Cc4cccc(Oc5ccc(Cl)cc5)c4)CC3)cccc2n1 [Example 65, 4-[3-(4-Chloro-phenoxy)-benzyl]-piperazine-1-carboxylic acid (2-methyl-2H-indazol-4-yl)-amide] | 50 | 28
O=C(Nc1noc2cnccc12)N1CCN(Cc2ccc3c(c2)OC(F)(F)O3)CC1 [Example 39, 4-(2,2-Difluoro-benzo[1,3]dioxol-5-ylmethyl)-piperazine-1-carboxylic acid isoxazolo[5,4-c]pyridin-3-ylamide] | 6 | 11
O=C(Nc1ccn2ccnc2c1)N1CCN(Cc2ccc3c(c2)OC(F)(F)O3)CC1 [Example 73, 4-(2,2-Difluoro-benzo[1,3]dioxol-5-ylmethyl)-piperazine-1-carboxylic acid imidazo[1,2-a]pyridin-7-ylamide] | 1400 | 1600
O=C(Nc1noc2ncccc12)N1CCN(Cc2cccc(Oc3ccc(F)c(C(F)(F)F)c3)c2)CC1 [Example 14, 4-[3-(4-Fluoro-3-trifluoromethyl-phenoxy)-benzyl]-piperazine-1-carboxylic acid isoxazolo[5,4-b]pyridin-3-ylamide] | 470 | 4000
O=C(Nc1cnc2[nH]ccc2c1)N1CCN(Cc2ccc3c(c2)OC(F)(F)O3)CC1 [Example 44, 4-(2,2-Difluoro-benzo[1,3]dioxol-5-ylmethyl)-piperazine-1-carboxylic acid (1H-pyrrolo[2,3-b]pyridin-5-yl)-amide] | 16 | 9
O=C(Nc1noc2ncccc12)N1CCN(Cc2ccc(Br)cc2)CC1 [Example 11, 4-(4-Bromo-benzyl)-piperazine-1-carboxylic acid isoxazolo[5,4-b]pyridin-3-ylamide] | > 10000 | > 10000
O=C(Nc1noc2ncccc12)N1CCN(Cc2cnc3ccccc3c2)CC1 [Example 10, 4-Quinolin-3-ylmethyl-piperazine-1-carboxylic acid isoxazolo[5,4-b]pyridin-3-ylamide] | > 10000 | > 10000
O=C(Nc1noc2ncccc12)N1CCN(Cc2cccc(Oc3ccc(F)c(F)c3)c2)CC1 [Example 26, 4-[3-(3,4-Difluoro-phenoxy)-benzyl]-piperazine-1-carboxylic acid isoxazolo[5,4-b]pyridin-3-ylamide] | 3200 | > 10000
O=C(Nc1noc2ncccc12)N1CCN(Cc2cccc(Oc3cccc(OC(F)(F)F)c3)c2)CC1 [Example 36, 4-[3-(3-Trifluoromethoxy-phenoxy)-benzyl]-piperazine-1-carboxylic acid isoxazolo[5,4-b]pyridin-3-ylamide] | 1400 | 6000
O=C(Nc1nocc1Cl)N1CCC(Cc2cnc3ccccc3c2)CC1 [Example 84, 4-Quinolin-3-ylmethyl-piperidine-1-carboxylic acid (4-chloro-isoxazol-3-yl)-amide] | 14 | 35

Other lines, results leading:

IC50 (FAAH) [nM] | IC50 (Rat FAAH) [nM] | SMILES
220 | 4000 | CC(C)n1ncc2cc(NC(=O)N3CCN(Cc4cccc(Oc5ccc(Cl)cc5)c4)CC3)cnc21 [Example 62, 4-[3-(4-Chloro-phenoxy)-benzyl]-piperazine-1-carboxylic acid (1-isopropyl-1H-pyrazolo[3,4-b]pyridin-5-yl)-amide]
34 | 53 | O=C(Nc1noc2ncccc12)N1CCN(Cc2cccc(Oc3ccc(Br)cc3)c2)CC1 [Example 24, 4-[3-(4-Bromo-phenoxy)-benzyl]-piperazine-1-carboxylic acid isoxazolo[5,4-b]pyridin-3-ylamide]
15 | 30 | O=C(Nc1cnc2cccnn12)N1CCC(Cc2ccc(Cl)c(Cl)c2)CC1 [Example 83, 4-(3,4-Dichlorobenzyl)-N-imidazo[1,2-b]pyridazin-3-ylpiperidine-1-carboxamide]
48 | 2000 | N#Cc1cccnc1Oc1cccc(CN2CCN(C(=O)Nc3cnc4[nH]ccc4c3)CC2)c1 [Example 77, 4-[3-(3-Cyano-pyridin-2-yloxy)-benzyl]-piperazine-1-carboxylic acid (1H-pyrrolo[2,3-b]pyridin-5-yl)-amide]
2000 | 6000 | N#Cc1cccc(Oc2cccc(CN3CCN(C(=O)Nc4noc5ncccc45)CC3)c2)c1 [Example 16, 4-[3-(3-Cyano-phenoxy)-benzyl]-piperazine-1-carboxylic acid isoxazolo[5,4-b]pyridin-3-ylamide]
2000 | 3000 | O=C(Nc1ccc2ncoc2c1)N1CCN(Cc2ccc3c(c2)OC(F)(F)O3)CC1 [Example 47, 4-(2,2-Difluoro-benzo[1,3]dioxol-5-ylmethyl)-piperazine-1-carboxylic acid benzooxazol-6-ylamide]
1600 | 8000 | O=C(Nc1noc2ncccc12)N1CCN(Cc2ccc3c(c2)OC(F)(F)O3)CC1 [Example 5, 4-(2,2-Difluoro-benzo[1,3]dioxol-5-ylmethyl)-piperazine-1-carboxylic acid isoxazolo[5,4-b]pyridin-3-ylamide]
220 | 300 | O=C(Nc1noc2ncccc12)N1CCN(Cc2cccc(Oc3cccc(Cl)c3)c2)CC1 [Example 23, 4-[3-(3-Chloro-phenoxy)-benzyl]-piperazine-1-carboxylic acid isoxazolo[5,4-b]pyridin-3-ylamide]
150 | 300 | O=C(Nc1noc2ncccc12)N1CCN(Cc2cccc(Oc3cccc(Br)c3)c2)CC1 [Example 35, 4-[3-(3-Bromo-phenoxy)-benzyl]-piperazine-1-carboxylic acid isoxazolo[5,4-b]pyridin-3-ylamide]
3 | 180 | O=C(Nc1cnc2[nH]ccc2c1)N1CCN(Cc2cccc(Oc3ccc(C(F)(F)F)nn3)c2)CC1 [Example 80, 4-[3-(6-Trifluoromethyl-pyridazin-3-yloxy)-benzyl]-piperazine-1-carboxylic acid (1H-pyrrolo[2,3-b]pyridin-5-yl)-amide]
26 | 95 | Cc1nn(C)c2ncc(NC(=O)N3CCN(Cc4cccc(Oc5ccc(Cl)cc5)c4)CC3)cc12 [Example 64, 4-[3-(4-Chloro-phenoxy)-benzyl]-piperazine-1-carboxylic acid (1,3-dimethyl-1H-pyrazolo[3,4-b]pyridin-5-yl)-amide]
> 10000 | > 10000 | O=C(Nc1cn2ccccc2n1)N1CCN(Cc2cccc(Oc3ccc(Cl)cc3)c2)CC1 [Example 55, 4-[3-(4-Chloro-phenoxy)-benzyl]-piperazine-1-carboxylic acid imidazo[1,2-a]pyridin-2-ylamide]
3000 | > 10000 | O=C(Nc1noc2ncccc12)N1CCN(Cc2cc3ccccc3o2)CC1 [Example 31, 4-Benzofuran-2-ylmethyl-piperazine-1-carboxylic acid isoxazolo[5,4-b]pyridin-3-ylamide]
> 10000 | > 10000 | O=C(Nc1noc2ncccc12)N1CCN(Cc2cccc(Oc3ccccc3)c2)CC1 [Example 27, 4-(3-Phenoxy-benzyl)-piperazine-1-carboxylic acid isoxazolo[5,4-b]pyridin-3-ylamide]
6000 | 350 | O=C(Nc1cccn2ccnc12)N1CCN(Cc2ccc3c(c2)OC(F)(F)O3)CC1 [Example 54, 4-(2,2-Difluoro-benzo[1,3]dioxol-5-ylmethyl)-piperazine-1-carboxylic acid imidazo[1,2-a]pyridin-8-ylamide]

From patent US8877769B2, “Heteroaryl-substituted urea modulators of fatty acid amide hydrolase” (Janssen Pharmaceutica NV, priority 2008, dated 2014)
